This is an account of results in patent publication US7288654B2, “Fused-ring pyridine derivative, process for producing the same, and use” (Takeda Pharmaceutical Company Ltd, priority 2003, dated 2007).

Each structure is given as a SMILES string.

For this assay, the target named is T1, human CCR5 (Homo sapiens, UniProt P51681).
T1 construct: expressed in transfected cells
T1 sequence (P51681 whole entry): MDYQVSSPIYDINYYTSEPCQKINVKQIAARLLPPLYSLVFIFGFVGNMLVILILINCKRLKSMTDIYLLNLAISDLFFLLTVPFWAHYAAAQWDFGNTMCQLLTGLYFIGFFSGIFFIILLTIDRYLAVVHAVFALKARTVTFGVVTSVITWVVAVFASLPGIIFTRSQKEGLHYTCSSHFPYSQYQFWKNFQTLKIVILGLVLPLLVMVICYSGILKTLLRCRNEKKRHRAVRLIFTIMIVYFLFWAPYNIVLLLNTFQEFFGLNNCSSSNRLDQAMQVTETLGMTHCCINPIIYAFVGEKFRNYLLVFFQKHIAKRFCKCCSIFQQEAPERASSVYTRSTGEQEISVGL
Put plainly: [125I]-RANTES binding inhibition in CCR5/CHO cells (CCR5 antagonist activity). The note with it: test compound 1 μM, 100 pM [125I]-RANTES, room temperature, 40 minutes. The protocol: (1) Cloning of Human CCR5 Chemokine Receptor
Cloning of a CCR5 gene was conducted from human spleen cDNA by a PCR method. Using 0.5 ng of spleen cDNA (Toyobo Co., Ltd., QUICK-Clone cDNA) as a template, the PCR reaction was carried out in a DNA Thermal Cycler 480 (Perkin Elmer) using a TaKaRa EX Taq (Takara Shuzo Co., Ltd.) (reaction conditions: 30 cycles of treatments at 95° C. for 1 minute, at 60° C. for 1 minute, and at 75° C. for 5 minutes) by adding 25 pmol of primers, SEQ ID NO. 1 (sequence length: 34; sequence type: nucleic acid; number of chains: a single chain; topology: linear; sequence kind: other nucleic acid, synthetic DNA) described in Experimental Example (1) of WO 99/32100, and SEQ ID NO. 2 (sequence length: 34; sequence type: nucleic acid; number of chains: a single chain; topology: linear; sequence kind: other nucleic acid, synthetic DNA) described in Experimental Example (1) of WO 99/32100, respectively, which were prepared by referring to the base sequence of the CCR5 gene described by Samson et al. (Biochemistry 35 (11), 3362-3367 (1996)). The PCR products were subjected to agarose gel electrophoresis to collect DNA fragments of about 1.0 kb. Then, the CCR5 gene was cloned using an Original TA Cloning Kit (Funakoshi Co., Ltd.).
(2) Preparation of Plasmid for Expression of Human CCR5
The plasmids obtained above were digested with restriction enzymes XbaI (Takara Shuzo Co., Ltd.) and BamHI (Takara Shuzo Co., Ltd.), and subjected to agarose gel electrophoresis to collect DNA fragments of about 1.0 kb. The DNA fragments and a plasmid pcDNA3.1 (Funakoshi Co., Ltd.) for expression in animal cells, which was previously digested with XbaI and BamHI, were mixed and ligated by DNA Ligation Kit Ver.2 (Takara Shuzo Co., Ltd.). Transformation of E. coli JM109 competent cells (Takara Shuzo Co., Ltd.) gave plasmid pCKR5.
(3) Introduction of the Plasmid for Expression of Human CCR5 into CHO—K1 Cells and Expression Thereof
CHO—K1 cells grown in a 750 ml tissue culture flask (Becton Dickinson) using Ham's F12 medium (Nihon Pharmaceutical Co., Ltd.) containing 10% fetal bovine serum (Lifetech Oriental) were collected from the flask by using 0.5 g/L trypsin-0.2 g/L EDTA (Lifetech Oriental). The cells were then washed with PBS (Lifetech Oriental), centrifuged (1000 rpm, 5 minutes), and suspended in PBS. Next, DNA was introduced into the cells using Gene Pulser (Bio-Rad Laboratories Inc.) under the following conditions. […]
Subsequently, the Geneticin-resistant strains were cultured in the 96-well plate (Becton Dickinson), and then CCR5-expressing cells were selected from the resistant strains. […] The cells to which the ligand bound specifically, i.e., CCR5/CHO strains, were selected by measurement of radioactivity by γ-counter. […]
On to `CCCCOCCOc1ccc(-c2cnc3c(c2)C=C(C(=O)Nc2ccc([S@@+]([O-])Cc4cncn4CCC)cc2)CCCN3CC(C)C)cc1` [Compound 1, (S)-3-[4-(2-butoxyethoxy)phenyl]-10-isobutyl-N-[4-[[(1-propyl-1H-imidazol-5-yl)methyl]sulfinyl]phenyl]-7,8,9,10-tetrahydropyrido[2,3-b]azocine-6-carboxamide], for which the “Binding Inhibitory Ratio (%)” value came to 94%.
As for `CCCCOCCOc1ccc(-c2cnc3c(c2)C=C(C(=O)Nc2ccc([S@@+]([O-])Cc4cncn4CCC)cc2)CCCN3CCC)cc1` [Compound 2, (S)-3-[4-(2-butoxyethoxy)phenyl]-10-propyl-N-[4-[[(1-propyl-1H-imidazol-5-yl)methyl]sulfinyl]phenyl]-7,8,9,10-tetrahydropyrido[2,3-b]azocine-6-carboxamide], the figure is 93%; as for `CCCCOCCOc1ccc(-c2cnc3c(c2)C=C(C(=O)Nc2ccc([S@@+]([O-])Cc4cncn4CCC)cc2)CCN3CC(C)C)cc1` [Compound 3, (S)-3-[4-(2-butoxyethoxy)phenyl]-9-isobutyl-N-[4-[[(1-propyl-1H-imidazol-5-yl)methyl]sulfinyl]aniline]-8,9-dihydro-7H-pyrido[2,3-b]azepine-6-carboxamide], 100%.
As for `CCCCOCCOc1ccc(-c2cnc3c(c2)C=C(C(=O)Nc2ccc(CN(C)C4CCOCC4)cc2)CCN3CC(C)C)cc1` [Compound 4, 3-[4-(2-butoxyethoxy)phenyl]-9-isobutyl-N-[4-[[methyl(tetrahydro-2H-pyran-4-yl)amino]methyl]phenyl]-8,9-dihydro-7H-pyrido[2,3-b]azepine-6-carboxamide], the figure is 100%.
